Measurements published in patent publication US9107946B2, “Drug combinations comprising a DGAT inhibitor and a PPAR-agonist” (Janssen Pharmaceutica NV, priority 2008, dated 2015).

Experiments:
human DGAT1 = target: T1, human DGAT1 (Homo sapiens, UniProt O75907); assay: DGAT1 FlashPlate assay: inhibition of DGAT1 activity in membrane preparations; assay type: biochemical; settings: human DGAT1 membranes from SF9 cells, [3H]-oleoylCoA, 120 min at 37° C.; for IC50: read-out: pIC50 (-logIC50, 50% inhibition of DGAT1 activity) (converted)
T1 construct: FLAG (N); made in house; host or cells: SF9 insect cells (pFastBac / baculovirus); total cell membranes
T1 sequence (O75907 1-488): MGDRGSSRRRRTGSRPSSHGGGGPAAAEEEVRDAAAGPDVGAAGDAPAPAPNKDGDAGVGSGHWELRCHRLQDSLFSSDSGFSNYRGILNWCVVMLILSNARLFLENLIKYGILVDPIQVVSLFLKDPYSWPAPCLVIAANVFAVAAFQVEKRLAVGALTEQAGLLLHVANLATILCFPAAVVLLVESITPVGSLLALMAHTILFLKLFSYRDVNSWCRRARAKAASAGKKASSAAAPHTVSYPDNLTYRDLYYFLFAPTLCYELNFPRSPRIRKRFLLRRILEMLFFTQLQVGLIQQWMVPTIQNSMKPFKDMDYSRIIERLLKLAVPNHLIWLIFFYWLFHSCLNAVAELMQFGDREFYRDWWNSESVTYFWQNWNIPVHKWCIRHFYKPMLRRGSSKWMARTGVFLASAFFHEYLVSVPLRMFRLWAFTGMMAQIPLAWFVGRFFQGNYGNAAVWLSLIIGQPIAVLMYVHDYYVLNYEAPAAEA
From the text: The inhibiting activity of compounds of Class A, Class B, Class C and Class D on DGAT1 activity was screened in a single well procedure assay using DGAT1 comprising membrane preparations and DGAT1 substrate comprising micelles and determining formed radio-active triacylglycerol coming in close proximity of a flashplate surface by radioluminescence.
Said assay is described in full detail in WO2006/067071, the content of which is incorporated herein by reference.
By DGAT1 activity is meant the transfer of coenzyme A activated fatty acids to the 3-position of 1,2-diacylglycerols, thus forming a triglyceride molecule, by enzyme DGAT1.
human DGAT1 (NM012079.2) was cloned into the pFastBac vector, containing translation start, a FLAG-tag at the N-terminus as described in literature and a viral Kozak sequence (AAX) preceding the ATG to improve expression in insect cells. Expression was done as described in literature (Cases, S., Smith, S. J., Zheng, Y., Myers H. M., Lear, S. R., Sande, E., Novak, S., Collins, C., Welch, C. B., Lusis, A. J., Erickson, S. K. and Farese, R. V. (1998) Proc. Natl. Acad. Sci. USA 95, 13018-13023.) using SF9 cells.
72h transfected SF9 cells were collected by centrifugation (13000 rpm-15 min-4° C.) and lysed in 2×500 ml lysisbuffer (0.1M Sucrose, 50 mM KCl, 40 mM KH2PO4, 30 mM EDTA pH 7.2. Cells were homogenized by cell disruptor. After centrifugation 1380 rpm-15 min-4° C. (SN discarded), pellet was resuspended in 500 ml lysisbuffer and total cell membranes collected by ultracentrifugation at 34000 rpm(100 000 g) for 60 min (4° C.). The collected membranes were resuspended in lysis buffer, divided in aliquots and stored with 10% glycerol at −80° C. until use.
• a) 1,2-dioleoyl-sn-glycerol, 10 mg/ml (1,2-diacylglycerol (DAG)) Dissolve in acetonitrile; evaporate the acetonitrile solution under nitrogen and reconstitute in chloroform at a final concentration of 10 mg/ml. • b) L-α-phosphatidylcholine, 1 mg/ml (phosphatidylcholine (PC)) • Dissolve in chloroform at a final concentration of 1 mg/ml and store at 4° C. • c) L-α-phosphatidyl-L-serine, 1 mg/ml (phophatidylserine (PS)) • Dissolve in chloroform at a final concentration of 1 mg/ml and store at 4° C. Method
Add 1 ml dioleoyl-sn-glycerol (10 mg/ml) to 10 ml of L-α-phosphatidylcholine (1 mg/ml) and 10 ml of L-α-phosphatidyl-L-serine (1 mg/ml) in a thick glass recipient. Evaporate under nitrogen and put on ice for 15 min Reconstitute in 10 ml Tris/HCl (10 mM, pH 7.4) by sonication on ice. The sonification process includes sonification cycles of 10 seconds in the sonification bath followed by 10 seconds cool down on ice and repeating this sonification cycle till a homogeneous solution is obtained (takes about 15 min). The thus obtained micelles are stored at −20° C. till later use and contain DAG at a final concentration of 1.61 mM.
• a) Assaybuffer • 50 mM Tris-HCl (pH 7.4), 150 mM MgCl2, 1 mM EDTA, 0.2% BSA. • b) N-ethylmaleimide, 5M • Dissolve 5 g into a final volume of 8 ml DMSO 100% and store at −20° C. in aliquots till later use. • c) Substrate mix (for 1 384 well plate=3840 μl) • 612 μl micelles stock (51 μM final) • 16.6 μl oleoylCoA 9.7 mM • 23 μl [^3H]-oleoylCoA (49 Ci/mmol, 500 μCi/ml) • 3188.4 μl Tris pH 7.4, 10 mM • d) Enzyme mix (for 1 384 well plate=3520 μl) (5 μg/ml) • Add 11.73 μl of DGAT membrane stock (1500 μg/ml stock) to 3508 μl assay buffer. • e) Stop mix (for 1 384 well plate=7.68 ml) (250 mM) • Add 384 μl of N-ethylmaleimide (5M) to 3.456 ml DMSO 100%, and further dilute 3.84 ml of said solution with 3.84 ml DMSO 10%. Method
DGAT activity in membrane preparations was assayed in 50 mM Tris-HCl (pH 7.4), 150 mM MgCl2, 1 mM EDTA and 0.2% BSA, containing 50 μM DAG, 32 μg/ml PC/PS and 8.4 μM [^3H]-oleoylCoA (at a specific activity of 30 nCi/well) in a final volume of 50 μl in 384-well format using the red shifted Basic Image FlashPlate™ (Perkin Elmer Cat.No. SMP400). […]

| Structure (SMILES) | IC50 (human DGAT1) | melting point | pIC50 (-logIC50, 50% inhibition of DGAT1 activity) (human DGAT1) |
| --- | --- | --- | --- |
| COc1ccc(CC(=O)Nc2ccc(N3CCN(C(=O)Cc4ccc(CN5CCCC5)cc4Cl)CC3)cc2)cc1 [355-Class D, N-[4-[4-[[2-chloro-4-(1-pyrrolidinylmethyl)phenyl]acetyl]-1-piperazinyl]phenyl]-4-methoxy-benzeneacetamide] | 912 nM | 153.3 to 155.2 °C |  |
| CS(=O)(=O)N1CCN(Cc2cc(Cl)c(CC(=O)N3CCN(c4ccc(C(=O)NCc5cccc(N6CCCC6)c5)cc4)CC3)c(Cl)c2)CC1 [363-Class D, 4-[4-[[2,6-dichloro-4-[[4-(methylsulfonyl)-1-piperazinyl]methyl]phenyl]acetyl]-1-piperazinyl]-N-[[3-(1-pyrrolidinyl)phenyl]methyl]-benzamide] | 11.5 nM | 241 to 243 °C |  |
| COc1cc(CNC(=O)c2ccc(N3CCN(C(=O)Cc4c(Cl)cc(CN5CCN(C(C)=O)CC5)cc4Cl)CC3)cc2)cc(OC)c1 [362-Class D, 4-[4-[[4-[(4-acetyl-1-piperazinyl)methyl]-2,6-dichlorophenyl]acetyl]-1-piperazinyl]-N-[(3,5-dimethoxyphenyl)methyl]-benzamide] | 9.12 nM | 123 to 126 °C |  |
| COc1cc(CNC(=O)c2ccc(N3CCN(C(=O)Cc4ccc(CN5CCCC5)cc4Cl)CC3)cc2)cc(OC)c1 [353-Class D, 4-[4-[[2-chloro-4-(1-pyrrolidinylmethyl)phenyl]acetyl]-1-piperazinyl]-N-[(3,5-dimethoxyphenyl)methyl]-benzamide] | 257 nM | 126.6 to 128.1 °C |  |
| CS(=O)(=O)N1CCN(Cc2cc(Cl)c(CC(=O)N3CCN(c4ccc(C(=O)Nc5cccc(N6CCCC6)c5)cc4)CC3)c(Cl)c2)CC1 [150-Class C, 4-[4-[[2,6-dichloro-4-[[4-(methylsulfonyl)-1-piperazinyl]methyl]phenyl]acetyl]-1-piperazinyl]-N-[3-(1-pyrrolidinyl)phenyl]-benzamide] | 6.03 nM | 240 to 242 °C |  |
| O=C(NCc1cccc(N2CCCC2)c1)c1ccc(N2CCN(C(=O)C(O)c3ccc(CN4CCCC4)cc3Cl)CC2)cc1 (stereo not shown) [356-Class D, 4-[4-[[2-chloro-4-(1-pyrrolidinylmethyl)phenyl]hydroxyacetyl]-1-piperazinyl]-N-[[3-(1-pyrrolidinyl)phenyl]methyl]-benzamide] | 74.1 nM | 134.4 to 137 °C |  |
| COc1ccc(CC(=O)Nc2ccc(N3CCN(C(=O)C(O)c4ccc(CN5CCCC5)cc4Cl)CC3)cc2)cc1 (stereo not shown) [352-Class D, N-[4-[4-[[2-chloro-4-(1-pyrrolidinylmethyl)phenyl]hydroxyacetyl]-1-piperazinyl]phenyl]-4-methoxy-benzeneacetamide] |  |  | 6.45 |
| COc1cc(CNC(=O)c2ccc(N3CCN(C(=O)C(O)c4ccc(CN5CCCC5)cc4Cl)CC3)cc2)cc(OC)c1 (stereo not shown) [357-Class D, 4-[4-[[2-chloro-4-(1-pyrrolidinylmethyl)phenyl]hydroxyacetyl]-1-piperazinyl]-N-[(3,5-dimethoxyphenyl)methyl]-benzamide] | 55 nM |  |  |
| O=C(Nc1cccc(N2CCCC2)c1)c1ccc(N2CCN(C(=O)C(O)c3ccc(CN4CCCC4)cc3Cl)CC2)cc1 (stereo not shown) [152-Class C, 4-[4-[[2-chloro-4-(1-pyrrolidinylmethyl)phenyl]hydroxyacetyl]-1-piperazinyl]-N-[3-(1-pyrrolidinyl)phenyl]-benzamide] | 35.5 nM | 138.7 to 140.9 °C |  |
| O=C(NCc1cccc(N2CCCC2)c1)c1ccc(N2CCN(C(=O)Cc3ccc(CN4CCCC4)cc3Cl)CC2)cc1 [354-Class D, 4-[4-[[2-chloro-4-(1-pyrrolidinylmethyl)phenyl]acetyl]-1-piperazinyl]-N-[[3-(1-pyrrolidinyl)phenyl]methyl]-benzamide] | 646 nM | 206.3 to 209.4 °C |  |
| COc1cc(CNC(=O)c2ccc(N3CCN(C(=O)Cc4c(Cl)cc(CN5CCN(S(C)(=O)=O)CC5)cc4Cl)CC3)cc2)cc(OC)c1 [364-Class D, 4-[4-[[2,6-dichloro-4-[[4-(methylsulfonyl)-1-piperazinyl]methyl]phenyl]acetyl]-1-piperazinyl]-N-[(3,5-dimethoxyphenyl)methyl]-benzamide] | 5.75 nM | 152 to 154 °C |  |
| CC(=O)N1CCN(Cc2cc(Cl)c(CC(=O)N3CCN(c4ccc(C(=O)Nc5cccc(N6CCCC6)c5)cc4)CC3)c(Cl)c2)CC1 [149-Class C, 4-[4-[[4-[(4-acetyl-1-piperazinyl)methyl]-2,6-dichlorophenyl]acetyl]-1-piperazinyl]-N-[3-(1-pyrrolidinyl)phenyl]-benzamide] | 6.17 nM | 250 to 252 °C |  |
| COc1ccc(CC(=O)Nc2ccc(N3CCN(C(=O)Cc4c(Cl)cc(CN5CCCC5)cc4Cl)CC3)cc2)cc1 [351-Class D, N-[4-[4-[[2,6-dichloro-4-(1-pyrrolidinylmethyl)phenyl]acetyl]-1-piperazinyl]phenyl]-4-methoxy-benzeneacetamide] |  |  | 6.62 |
| O=C(NCc1cccc(N2CCCC2)c1)c1ccc(N2CCN(C(=O)Cc3c(Cl)cc(CN4CCCC4)cc3Cl)CC2)cc1 [267-Class D, 4-[4-[[2,6-dichloro-4-(1-pyrrolidinylmethyl)phenyl]acetyl]-1-piperazinyl]-N-[[3-(1-pyrrolidinyl)phenyl]methyl]-benzamide] |  |  | 6.97 |
| O=C(Nc1cccc(N2CCCC2)c1)c1ccc(N2CCN(C(=O)Cc3c(Cl)cc(CN4CCCC4)cc3Cl)CC2)cc1 [147-Class C, 4-[4-[[2,6-dichloro-4-(1-pyrrolidinylmethyl)phenyl]acetyl]-1-piperazinyl]-N-[3-(1-pyrrolidinyl)phenyl]-benzamide] | 38.9 nM | 262 to 263 °C |  |
| CC(=O)N1CCN(Cc2cc(Cl)c(CC(=O)N3CCN(c4ccc(C(=O)NCc5cccc(N6CCCC6)c5)cc4)CC3)c(Cl)c2)CC1 [361-Class D, 4-[4-[[4-[(4-acetyl-1-piperazinyl)methyl]-2,6-dichlorophenyl]acetyl]-1-piperazinyl]-N-[[3-(1-pyrrolidinyl)phenyl]methyl]-benzamide] | 13.5 nM | 164 to 166 °C |  |
